Measured values as given in patent US6620853B1, “Methods and compositions for prevention and treatment of restenosis with non-steroidal anti-inflammatory drugs” (Mount Sinai School of Medicine, priority 1998, dated 2003).

How the values were obtained:
[1] = tested on: HT-29 human colon adenocarcinoma cells; details: cited from earlier work
[2] = tested on: ApoE-deficient mice; assay: Atherosclerotic lesions and plasma cholesterol in ApoE-deficient mice on western diet; format: in vivo, mouse; details: ApoE-deficient mice maintained on a western diet
Description: The Apo-E deficient mouse is the first mouse model of atherosclerosis with pathology similar to that of human atherosclerosis (Cell 1992, 71:343-353). Serum cholesterol levels in the mice maintained on a chow diet are five times higher than those of control littermates. Apo-E, which is made primarily in the liver, is a surface constituent of lipoprotein particles and a ligand for lipoprotein recognition and clearance by lipoprotein receptors (Science 1996, 272:685-688). ApoE-deficient mice have delayed clearance of lipoproteins, and on a low-cholesterol, low-fat diet, their cholesterol levels reach 400 to 600 mg/dl as a result of accumulation of chylomicron and very low-density lipoprotein (VLDL) remnants enriched in esterified and free cholesterol (Circulation 1993, 88:A9). These mice develop not only fatty streaks but also widespread fibrous plaque lesions at vascular sites typically affected in human atherosclerosis (Arterioscier. Thromb. 1994, 14;1873). Lesions form at the base of the aorta and the lesser curvature of the thoracic aorta, at the branch points of the carotid, intercostal, mesenteric, renal and iliac arteries, and in the proximal coronary, carotid, femoral, subclavian, and brachiocephalic arteries. Lesions begin at 5 to 6 weeks of age with monocyte attachment to the endothelium in lesion-prone areas and transendothelial migration. Fatty streak lesions begin to appear at 10 weeks, and intermediate lesions containing foam cells and spindle-shaped smooth muscle cells appear at 15 weeks. Fibrous plaques appear after 20 weeks and consist of a necrotic core covered by a fibrous cap of smooth muscle cells surrounded by elastic fibers and collagen. In older mice, fibrous plaques progress. In some advanced lesions there is partial destruction of underlying medial cells with occasional aneurysm formation, and in others calcification occurs in the fibrous tissue. Extensive fibro-proliferation can narrow the lumen, even to the point of occlusion of vessels.
Atherosclerosis can be exacerbated by a high-cholesterol or high-fat diet. This effect is mimicked in the ApoE-deficient mice when these mice are fed a western-type diet as described below in Section 6.
The Apolipoprotein E knock-out mouse model is a valuable animal model to test the effect of NSAIDs on apoptosis, proliferation, quiescence, migration and differentiation of cells that contribute to atherosclerosis. ApoE is an apoprotein on the surface of atherogenic lipoproteins that serves as a ligand for certain receptors in key tissues. ApoE-induced signaling via these receptors, particularly by the hepatic LDL receptor, induces the removal of ApoE-containing lipoprotein particles from the plasma. […]

[3] = tested on: cyclooxygenase; details: Adv. Drug Res. 1977, 12:90-245; cited from earlier work
[4] = tested on: HCT-15 cultured colon cancer cell line; details: Biochem. Pharmacol. 1996, 52:237-245; cited from earlier work
[5] = tested on: ApoE-knockout mice; format: in vivo, mouse; details: Western Diet with Sulindac (300 mg/kg) for 17 weeks, examined four weeks after injury; vs control group
Description: We have developed a new mouse model of studying restenosis, in which the injury of the femoral artery is accomplished by the manipulation of wire stent which is introduced into the femoral artery first and then removed.
Briefly, the mouse is anesthetized with pentobarbital and the femoral artery is exposed by cutting the skin in the femoral region carefully. An angioplastz guide wire obtained from Advanced Cardiovascular Systems, Tameaila, Calif. of approximately 100 mm in length and 0.25 mm in diameter is then carefully inserted into the femoral artery, gently manipulated to simulate the arterial revascularization procedures used in humans, and removed. The bleeding is stopped by ligation. The skin fold is restored by sutures.
By one month after injury maximum restenosis is measured is achieved. The degree of restenosis is measured by two indices, the intima/media (I/M) ratio and the percentage of lumenal narrowing. […]
Thirty six week old ApoE-knockout mice were used and given the following dietary regimen and treatment: Group 1-western type diet (containing 42% by calories % fat and 0.15% (w/w) cholesterol); Group 2-western type diet plus aspirin at a concentration of 300 mg/kg diet/day and Group 3-western type diet plus Sulindac at a concentration of 300 mg/kg diet/day. […] The body weight was monitored on a weekly basis. […]

Compound	morphology of HT-29 cells [1]	proliferation of HT-29 cells [1]	development of atherosclerotic lesion / atherosclerotic index [2]	level of cholesterol in the plasma [2]	inhibition of cyclooxygenase [3]	antiproliferative effect [4]	arterial narrowing after mechanical arterial injury [5]	smooth muscle cell proliferation after mechanical arterial injury [5]
CC(=O)Oc1ccccc1C(=O)O [aspirin]	altered morphology	reduced proliferation	inhibited the atherosclerotic index but to a lesser extent than observed in the group treated with Sulindac	reduced the level of cholesterol in the plasma				
CC1=C(CC(=O)O)c2cc(F)ccc2/C1=C\c1ccc(S(C)(=O)=O)cc1 [sulfone, Sulindac sulfone]					does not inhibit cyclooxygenase			
COc1ccc2c(c1)c(CC(=O)O)c(C)n2C(=O)c1ccc(Cl)cc1 [indomethacin]	altered morphology	reduced proliferation						
CN1C(C(=O)Nc2ccccn2)=C(O)c2ccccc2S1(=O)=O [piroxicam]	altered morphology	reduced proliferation				antiproliferative effect independent of prostaglandin synthesis		
CC1=C(CC(=O)O)c2cc(F)ccc2/C1=C\c1ccc([S+](C)[O-])cc1 (stereo not drawn) [Sulindac]	altered morphology	reduced proliferation	significantly inhibited	reduced the level of cholesterol in the plasma		antiproliferative effect independent of prostaglandin synthesis	narrowing of the artery was not as marked	much less proliferation of smooth muscle cells
CSc1ccc(/C=C2/C(C)=C(CC(=O)O)c3cc(F)ccc32)cc1 [sulfide, Sulindac sulfide]					potent inhibitory agent of cyclooxygenase			
